{"source": "patent US10501454B2", "about": "“Monocyclic β-lactam-siderophore conjugate, and preparation method and use thereof” (Shanghai Institute of Materia Medica, Chinese Academy of …, priority 2016, dated 2019)", "key": {"[1]": {"system": "Acinetobacter baumannii (4 strains)", "experiment": "MIC, broth microdilution, iron-deficient MH medium", "assay_type": "cell-based", "details": "Acinetobacter baumannii; iron-deficient MH medium (16 mg/L 2,2'-bipyridine); multidrug-resistant clinical isolates (integron I, OXA23); read-out: Antibacterial activity MIC, Acinetobacter baumannii (4 strains)", "procedure": "(§1) Supplier of the strains: all of the above strains were provided by Sichuan Primed Shines Bio-tech Co., Ltd. A single colony was isolated by streaking on agar plates for each strain prior to the experiment, and the cells freshly cultured at 37° C. overnight were appropriately diluted for the experiment.\n(§2) Medium: MH liquid medium (OXOID).\n(§3) Culture condition: cells were incubated at 35-37° C. for 16-18 h.\n(§4) The broth microdilution method recommended by Clinical and Laboratory Standards Institute (CLSI), Performance Standards for Antimicrobial Susceptibility Testing; Twenty-Third Informational Supplement, M02-All, M07-A9 and M11-A8, 2013 was used to determine the MIC value of each test sample against each test strain in the normal MH medium and iron-deficient MH medium.\n(§5) BPL was added to the normal MH medium to obtain a final concentration of 16 mg/L; According to the method in Section 1.2.1, 100 μl of each test sample solution at different concentrations was aspirated to the 1st to 10th well in a 96-well sterile polystyrene plate to obtain the final drug concentrations of 16, 8, 4, 2, 1, 0.5, 0.25, 0.125, 0.06, and 0.03 mg/L, respectively. Then, 100 μl of the test bacterial liquid was added to each well (200 μl per well), and the final concentration of the bacterial liquid was approximately 10^4 CFU/ml. After sealing, it was placed in a 35-37° C. incubator for 18-20 hours for testing the result. The OD600 value was measured by a microplate reader, Minimal Inhibitory Concentration (MIC) of a drug is the lowest concentration of the drug which prevents growth of bacteria in the wells."}, "[2]": {"system": "Klebsiella pneumoniae (4 strains)", "experiment": "MIC, broth microdilution, iron-deficient MH medium", "assay_type": "cell-based", "procedure": "as §1, §2, §3, §4, §5"}, "[3]": {"system": "Escherichia coli (4 strains)", "experiment": "MIC, broth microdilution, iron-deficient MH medium", "assay_type": "cell-based", "details": "Escherichia coli; iron-deficient MH medium (16 mg/L 2,2'-bipyridine); clinical isolates (ESBLs); read-out: Antibacterial activity MIC, Escherichia coli (4 strains)", "procedure": "as §1, §2, §3, §4, §5"}, "[4]": {"system": "Pseudomonas aeruginosa (4 strains)", "experiment": "MIC, broth microdilution, iron-deficient MH medium", "assay_type": "cell-based", "details": "Pseudomonas aeruginosa; iron-deficient MH medium (16 mg/L 2,2'-bipyridine); multidrug-resistant clinical isolates (integrator I, IMP4); read-out: Antibacterial activity MIC, Pseudomonas aeruginosa (4 strains)", "procedure": "as §1, §2, §3, §4, §5"}, "[5]": {"system": "Escherichia coli ATCC 35218", "experiment": "MIC, broth microdilution, normal MH medium", "assay_type": "cell-based", "details": "Escherichia coli, ATCC35218, quality control strain, read-out: Antibacterial activity MIC, Escherichia coli ATCC 35218", "procedure": "(§6) Strain for quality control: Escherichia coli ATCC35218, purchased from National Center of Clinical Laboratory.\nas §2, §3, §4\nAfter diluting each sample to different concentrations with normal MH medium, 100 μl of each test sample solution at different concentrations was separately aspirated onto a 96-well sterile polystyrene plate. Drug solutions were added to the 1st to 10th well with the final concentrations of 16, 8, 4, 2, 1, 0.5, 0.25, 0.125, 0.06, and 0.03 mg/L in each well, respectively. The 11th well, as a blank control, was not added with drugs and bacteria. The 12th well, as a bacterial growth control, was added with bacteria but no drug.\nThe test bacterial liquid was adjusted to a bacterial suspension of 0.5 Mcfarland standard with physiological saline, and diluted with MH broth at 1:100, and then added to the drug solution so that a final concentration of the bacterial liquid was approximately 10^4 CFU/ml; 100 μl of the bacterial liquid was further added to each of the above wells (the total volume in each well is 200 μl), which was sealed and placed in a 35-37° C. incubator for 18-20 h for testing the result. The OD600 value was measured by a microplate reader, Minimal Inhibitory Concentration (MIC) of a drug is the lowest concentration of the drug which prevents growth of bacteria in the wells. 1.2.2 MIC in iron-deficient MH medium"}, "[6]": {"system": "Escherichia coli ATCC 35218", "experiment": "MIC, broth microdilution, iron-deficient MH medium", "assay_type": "cell-based", "details": "Escherichia coli, ATCC35218; iron-deficient MH medium (16 mg/L 2,2'-bipyridine); quality control strain; read-out: Antibacterial activity MIC, Escherichia coli ATCC 35218", "procedure": "as §6, §2, §3, §4, §5"}, "[7]": {"system": "Escherichia coli ECO-14-4 (ESBLs)", "experiment": "In vivo efficacy in mice systemically infected with Escherichia coli ECO-14-4 (ESBLs)", "details": "Escherichia coli; Kunming mice, intraperitoneal infection, drug s.c. 0.5 h and 4 h after infection, deaths over 7 days, Bliss method; read-out: ED50 Subcutaneous injection", "procedure": "3.1 Test strains: Clinically isolated pathogenic Escherichia coli ECO-14-4 (ESBLs), supplied by Sichuan Primed Shines Bio-tech Co., Ltd.\n3.2 Test animals: Kunming mice, age: 4 to 5 weeks, weight: 18 to 22 g, half male, half female, SPF grade.\n3.3 Test methods: Mice were randomly divided into several groups, 5 mice for each group, half male and half female, and 5 doses for each test drug: 1.25, 2.5, 5, 10 and 20 mg/kg. The mice were intraperitoneally injected with 0.5 mL of […] CFU/mL bacterial suspension for each mouse, and subcutaneously injected with the drug at the designed dose 0.5 h and 4 h after infection. The subcutaneous injection volume was 0.2 ml/20 g mouse weight; the number of deaths in mice was observed and recorded for 7 consecutive days. According to the number of deaths in mice, the half effective dose ED50 was calculated according to the Bliss method using the DAS 1.0 software, edited by Sun Ruiyuan et al."}, "[8]": {"system": "multidrug-resistant Klebsiella pneumoniae KR15-4 (KPC2)", "experiment": "In vivo efficacy in mice systemically infected with multidrug-resistant Klebsiella pneumoniae KR15-4 (KPC2)", "details": "Klebsiella pneumoniae; Kunming mice, intraperitoneal infection, drug s.c. 0.5 h and 4 h after infection, deaths over 7 days, Bliss method; read-out: ED50 Subcutaneous injection", "procedure": "4.1 Test strains: clinically isolated pathogenic multidrug-resistant Klebsiella pneumoniae KR15-4 (KPC2), provided by Sichuan Primed Shines Bio-tech Co., Ltd.\n4.2 Test animals: Kunming mice, age: 4 to 5 weeks, weight: 18 to 22 g, half male, half female, SPF grade.\n4.3 Test methods: Mice were randomly divided into several groups, 5 mice for each group, half male and half female, and 4 doses for each test drug: 12.5, 25, 50 and 100 mg/kg. The mice were intraperitoneally injected with 0.5 mL of 3.0×10^6 CFU/mL bacterial suspension for each mouse, and subcutaneously injected with the drug at the designed dose 0.5 h and 4 h after infection. The subcutaneous injection volume was 0.2 ml/20 g mouse weight; the number of deaths in mice was observed and recorded for 7 consecutive days. According to the number of deaths in mice, the half effective dose ED50 was calculated according to the Bliss method using the DAS 1.0 software, edited by Sun Ruiyuan et al."}}, "note": "Where a name gives a salt, the structure may show the parent alone."}
{"smiles": "CC(C)C(O/N=C(\\C(=O)N[C@@H]1C(=O)N(OS(=O)(=O)O)C1(C)C)c1csc(N)n1)c1cc(=O)c(O)cn1O", "note": "(stereo partly drawn) [Compound 12, (3S)-3-((Z)-2-(2-aminothiazol-4-yl)-2-((1-(1,5-dihydroxy-4-oxo-1,4-dihydropyridin-2-yl)methylisopropyloxy)imine)acetamido)-2,2-dimethyl-4-oxoazetidine-1-hydrogen sulfate]", "values": [{"measurement": "MIC", "setting": "[1]", "result": "0.5 to 1", "unit": "µg/mL"}, {"measurement": "MIC", "setting": "[2]; Klebsiella pneumoniae, iron-deficient MH medium (16 mg/L 2,2'-bipyridine), multi-drug resistant clinical isolates (KPC2), read-out: Antibacterial activity MIC, Klebsiella pneumoniae (4 strains)", "result": "0.25 to 0.5", "unit": "µg/mL"}, {"measurement": "times more effective than BAL30072 in inhibitory activity against Klebsiella pneumonia", "setting": "[2]; iron-deficient MH medium, from MIC of Table 3", "result": "128-256 times"}, {"measurement": "MIC", "setting": "[3]", "result": "0.03 to 0.25", "unit": "µg/mL"}, {"measurement": "MIC", "setting": "[4]", "result": "0.25 to 1", "unit": "µg/mL"}, {"measurement": "MIC", "setting": "[5]", "result": "< 0.03", "unit": "µg/mL"}, {"measurement": "MIC", "setting": "[6]", "result": "< 0.03", "unit": "µg/mL"}, {"measurement": "ED50", "setting": "[7]", "result": 3.37, "unit": "mg/kg"}, {"measurement": "ED50", "setting": "[8]", "result": 10.2, "unit": "mg/kg"}]}
